# Key:
# [1] = Solubility of the 1,2-propanediol solvate (stated advantage, no method given); format: physicochemical; settings: advantageous property found by the inventors; no solvent or value given
# [2] = cited from earlier work
solubility [1],Structure (SMILES),solubility in alcoholic solvents ([2]; alcoholic solvents like ethanol and methanol),solubility in water ([2]; water)
good solubility,"Cc1nc(Nc2ncc(C(=O)Nc3c(C)cccc3Cl)s2)cc(N2CCN(CCO)CC2)n1 [1,2-propanediol solvate, 1,2-Propanediol solvate of N-(2-chloro-6-methylphenyl)-2-[[6-[4-(2-hydroxyethyl)-1-piperazinyl]-2-methyl-4-pyrimidinyl]amino]-5-thiazolecarboxamide]",,
,"Cc1nc(Nc2ncc(C(=O)Nc3c(C)cccc3Cl)s2)cc(N2CCN(CCO)CC2)n1 [Dasatinib, N-(2-chloro-6-methylphenyl)-2-[[6-[4-(2-hydroxyethyl)-1-piperazinyl]-2-methyl-4-pyrimidinyl]amino]-5-thiazole carboxamide]",slightly soluble,insoluble
